Consider 19 compounds from PMC9611449, “Hydroxy-3-Phenylcoumarins as Multitarget Compounds for Skin Aging Diseases: Synthesis, Molecular Docking and Tyrosinase, Elastase, Collagenase and Hyaluronidase Inhibition, and Sun Protection Factor” (Molecules, 2022).

Where “and” joins values, the source holds several entries; their conditions need not be identical. Equal values may be shown once. Read-outs that look alike come from different tables or passages of the source.

The target in series [1] is tyrosinase. To be noted: cited from earlier work.
The nature of series [2]: In vitro determination of the sun protection factor (UV absorbance, Mansur equation). The class given is physicochemical. The note with it: compounds 0.1 mg/mL, absorbance 290–320 nm. The protocol:
The sun protection factor of coumarins’ derivatives was measured by the UV absorbance method, as previously reported. The absorbances of the compounds (0.1 mg/mL) were registered in the range of 290–320 nm, with 5 nm increments, and three measurements were performed at each point. The SPF was determined by using the Mansur Equation [23]: SPF=CF × Σ290320 × EE(λ) × I(λ) × Abs(λ) where CF = correction factor (10); EE (λ) = erythemogenic effect of radiation with wavelength λ; I(λ) = solar intensity spectrum; Abs(λ) = spectrophotometric absorbance values at wavelength λ. The values of EE (λ) × I(λ) are constant as determined by Sayre et al. (Table 5).

Series [3] has as its target porcine pancreatic elastase (Sus scrofa, UniProt P00772). The experiment in a line: Elastase inhibition assay (SANA substrate). The class given is biochemical. The note with it: for Enzyme inhibition Elastase / inhibition at 50 µM: 50 μM; for IC50: mean ± SD of three independent experiments; for inhibition at 50 µM: read-out: Enzyme inhibition Elastase. The protocol: (§1) Since the compounds were dissolved in DMSO, in the assays carried out without compounds, DMSO was added to the reaction mixture as blank control. […] Data from activity experiments were recorded using an Ultrospec 2100 spectrophotometer (Biochrom Ltd., Cambridge, UK).
The inhibition of elastase was determined by measuring the production of p-nitroaniline during the reaction of the enzyme with the N-succ-(Ala)3-nitroanilide (SANA) substrate. The assay was carried out in Tris-HCl buffer (0.1 M, pH 8.0) containing porcine pancreatic elastase (3.3 µg/mL). The reaction mixture was incubated in the presence or in the absence of the test compounds for 20 minutes and, once the substrate (1.6 mM) was added, the enzyme activity was monitored at 410 nm.

The subject of series [4] is mushroom tyrosinase. Nature of the series: Tyrosinase inhibition assay (L-DOPA substrate). The class given is biochemical. To be noted: for Enzyme inhibition Tyrosinase: 50 μM; for IC50: mean ± SD of three independent experiments. The protocol: as §1
The inhibition of tyrosinase was monitored by using DOPA as substrate. The reaction solution contained phosphate buffer (25 mM, pH 6.8) and mushroom tyrosinase (100 U/mL), with or without test samples.

Series [5] deals with Collagenase from Clostridium histolyticum. The experiment in a line: Collagenase inhibition assay (FALGPA substrate). The class given is biochemical. To be noted: for Enzyme inhibition Collagenase: 100 μM; for IC50: mean ± SD of three independent experiments. How it is done:
Results from all the inhibition tests described below were reported as a percentage of the blank control. Since the compounds were dissolved in DMSO, in the assays carried out without compounds, DMSO was added to the reaction mixture as blank control. […] Data from activity experiments were recorded using an Ultrospec 2100 spectrophotometer (Biochrom Ltd., Cambridge, UK).
Collagenase from Clostridium histolyticum (1 U/mL) was prepared in 0.05 M Tricine buffer (pH 7.5), with 0.4 M NaCl and 0.01 M CaCl2, and incubated with different concentrations of test samples for 15 minutes. After adding the N-(3-[2-Furyl]-acryloyl)-Leu-Gly-Pro-Ala (FALGPA) substrate, prepared in the same buffer solution reaching a final concentration of 0.8 mM, the absorbance was registered at 340 nm. Epigallocatechin gallate was used as a positive control.

The mark [6] stands for this setting: already described by our research group.

porcine pancreatic elastase, sequence (P00772 27-266): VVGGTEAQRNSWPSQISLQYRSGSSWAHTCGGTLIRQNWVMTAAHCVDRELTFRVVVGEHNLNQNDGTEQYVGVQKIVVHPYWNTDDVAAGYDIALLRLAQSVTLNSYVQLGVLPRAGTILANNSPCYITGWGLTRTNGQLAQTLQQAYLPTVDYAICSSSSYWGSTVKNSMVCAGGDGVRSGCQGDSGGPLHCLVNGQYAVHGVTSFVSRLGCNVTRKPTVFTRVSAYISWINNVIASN

As a reminder, the IC50 is the midpoint of a concentration-inhibition curve. As to `O=c1oc2c(O)cc(O)cc2cc1-c1cc(O)c(O)c(O)c1` [6,8-Dihydroxy-3-(3',4',5'-trihydroxyphenyl)coumarin], in series [1] (setting [6]), the IC50 was 270 µM.

On to `O=c1oc2ccc3ccccc3c2cc1-c1ccccc1O` [Compound 15, 3-(2′-Hydroxyphenyl)benzo[f]coumarin], for which the SPF in series [2] was 6.89 ± 3.28. Besides, in series [3], the “Enzyme inhibition Elastase” value was “N.I” and the IC50 is > 50 µM. For the same compound, in series [4], the “Enzyme inhibition Tyrosinase” value is reported as “N.I” and the IC50 is > 50 µM. Besides, in series [5], the “Enzyme inhibition Collagenase” value is on record as “N.I” and the IC50 was > 150 µM.

For `O=c1oc2c(O)cc(Br)cc2cc1-c1ccc(O)cc1` [6-Bromo-8-hydroxy-3-(4'-hydroxyphenyl)coumarin], the IC50 in series [1] (setting [6]) was 215 µM.

For orientation: inhibition means the change of the read-out against control, counted positive when it falls. With `O=c1oc2cc(O)c(O)cc2cc1-c1cccc(O)c1` [Compound 11, 6,7-Dihydroxy-3-(3′-hydroxyphenyl)coumarin], the SPF in series [2] is 5.44 and 5.44 ± 0.64. Further, in series [3], the inhibition at 50 µM is 29.6% and the IC50 was > 50 µM. In addition, in series [4], the “Enzyme inhibition Tyrosinase” value was 8.6% and the IC50 is > 50 µM. Further, in series [5], the “Enzyme inhibition Collagenase” value is 35.7% and the IC50 was 143 ± 7.1 µM.

As for `O=c1oc2cc(O)c(O)cc2cc1-c1cccc(Br)c1` [Compound 5, 3-(3′-Bromophenyl)-6,7-dihydroxycoumarin], in series [3], the inhibition at 50 µM is 68.4% and half-maximal inhibition (IC50) was put at 37.4 µM. Also, in series [4], the “Enzyme inhibition Tyrosinase” value is given as 80.3%; the IC50 was 8.25 µM and 8.3 µM. Further, in series [5], the “Enzyme inhibition Collagenase” value amounted to 18.2% and the IC50 was > 150 µM.

For the compound `O=c1oc2cc(O)ccc2cc1-c1cccc(Br)c1` [Compound 10, 3-(3′-Bromophenyl)-7-hydroxycoumarin], the SPF in series [2] turned out to be 6.70 ± 1.30. Besides, in series [3], the inhibition at 50 µM stood at 38.9% and the IC50 was > 50 µM. Besides, in series [4], the “Enzyme inhibition Tyrosinase” value amounted to 56.9% and the IC50 was 42 ± 1.1 µM. For the same compound, in series [5], the “Enzyme inhibition Collagenase” value came to 13.2% and the IC50 was > 150 µM.

In the case of `O=c1oc2c(O)c(O)ccc2cc1-c1ccccc1Br` [Compound 9, 3-(2′-Bromophenyl)-7,8-dihydroxycoumarin], in series [2], the SPF amounted to 4.27 ± 0.91. In series [3], the “Enzyme inhibition Elastase” value was “N.I” and the IC50 is > 50 µM. For the same compound, in series [4], the “Enzyme inhibition Tyrosinase” value is reported as 15.7% and the IC50 was > 50 µM. In series [5], the “Enzyme inhibition Collagenase” value came out at 14.7% and the IC50 is > 150 µM.

Compound `O=c1oc2ccc3ccccc3c2cc1-c1ccc(O)cc1` [Compound 13, 3-(4′-Hydroxyphenyl)benzo[f]coumarin] yielded an SPF in series [2] of 6.40 ± 1.53. In series [3], the inhibition at 50 µM was found to be 20.7% and the IC50 is > 50 µM. In addition, in series [4], the “Enzyme inhibition Tyrosinase” value came to 23.2% and the IC50 was > 50 µM. Further, in series [5], the “Enzyme inhibition Collagenase” value was found to be 51.5% and it took 96.8 ± 5.9 µM to reach half-maximal inhibition (IC50). For the same compound, in series [5] (ratio of IC50 values), the “times more active than the reference compound epigallocatechin gallate (collagenase)” value is 1.25 times.

With `O=c1ccc2cc(O)c(O)cc2o1` [Esculetin], the IC50 in series [1] (setting [6]) is 43 µM.

With `O=c1oc2cc(O)c(O)cc2cc1-c1ccccc1O` [Compound 12, 6,7-Dihydroxy-3-(2′-hydroxyphenyl)coumarin], in series [2], the SPF was 5.64 and 5.64 ± 1.43. In addition, in series [3], the inhibition at 50 µM amounted to 24.5% and the IC50 is > 50 µM. In addition, in series [4], the “Enzyme inhibition Tyrosinase” value is listed as 22.7% and the IC50 is > 50 µM. Also, in series [5], the “Enzyme inhibition Collagenase” value is on record as 39.3% and the IC50 is 134 ± 6.6 µM.

Take `Nc1cc2ccc(O)cc2oc1=O` [3-Amino-7-hydroxycoumarin]: the IC50 in series [1] was 50 µM.

`O=c1oc2cc(O)c(O)cc2cc1-c1ccccc1Br` [Compound 6, 3-(2′-Bromophenyl)-6,7-dihydroxycoumarin]: in series [2], the SPF is 8.08 and 8.08 ± 0.01. In series [3], the inhibition at 50 µM came to 23.8% and the IC50 is > 50 µM. For the same compound, in series [4], the “Enzyme inhibition Tyrosinase” value stood at 25.8% and the IC50 is > 50 µM. In addition, in series [5], the “Enzyme inhibition Collagenase” value turned out to be 38.1% and the midpoint of inhibition, the IC50, lay at 140 ± 8 µM.

On to `O=c1oc2ccc3ccccc3c2cc1-c1ccc(O)c(O)c1` [Compound 16, 3-(3′,4′-Dihydroxyphenyl)benzo[f]coumarin], for which the SPF in series [2] was 5.09 ± 1.35. Moreover, in series [3], the inhibition at 50 µM was found to be 22.8% and the IC50 is > 50 µM. Further, in series [4], the “Enzyme inhibition Tyrosinase” value is reported as “N.I” and the IC50 is > 50 µM. Moreover, in series [5], the “Enzyme inhibition Collagenase” value is given as 7.9% and the IC50 was > 150 µM.

In turn, `O=c1oc2cc(O)cc(O)c2cc1-c1ccccc1Br` [Compound 3, 3-(2′-Bromophenyl)-5,7-dihydroxycoumarin] yielded an SPF in series [2] of 5.89 ± 0.21. In series [3], the “Enzyme inhibition Elastase” value is “N.I” and the IC50 is > 50 µM. In addition, in series [4], the “Enzyme inhibition Tyrosinase” value is given as 29.3% and the IC50 is > 50 µM. Further, in series [5], the “Enzyme inhibition Collagenase” value was 37.1% and the midpoint of inhibition, the IC50, lay at 125 ± 10.2 µM.

In series [2], `O=c1oc2c(O)c(O)ccc2cc1-c1ccc(Br)cc1` [Compound 7, 3-(4′-Bromophenyl)-7,8-dihydroxycoumarin] returned an SPF of 5.88 ± 1.35. Moreover, in series [3], the inhibition at 50 µM worked out at 15.6% and the IC50 is > 50 µM. Further, in series [4], the “Enzyme inhibition Tyrosinase” value amounted to 9.6% and the IC50 was > 50 µM. For the same compound, in series [5], the “Enzyme inhibition Collagenase” value is given as “N.I” and the IC50 was > 150 µM.

In the case of `O=c1oc2c(O)c(O)ccc2cc1-c1cccc(Br)c1` [Compound 8, 3-(3′-Bromophenyl)-7,8-dihydroxycoumarin], the SPF in series [2] came to 6.94 ± 2.57. Also, in series [3], the inhibition at 50 µM was found to be 2.2% and the IC50 was > 50 µM. In series [4], the “Enzyme inhibition Tyrosinase” value was 33.6% and the IC50 was > 50 µM. In series [5], the “Enzyme inhibition Collagenase” value is listed as 39.9% and the IC50 was 122 ± 4.8 µM.

`O=C(O[C@@H]1Cc2c(O)cc(O)cc2O[C@@H]1c1cc(O)c(O)c(O)c1)c1cc(O)c(O)c(O)c1` [Epigallocatechin gallate, reference compound] displayed an IC50 in series [5] of 121 ± 6.2 µM.

In the case of `O=c1oc2ccc3ccccc3c2cc1-c1cccc(O)c1` [Compound 14, 3-(3′-Hydroxyphenyl)benzo[f]coumarin], the SPF in series [2] amounted to 5.08 ± 0.46. Also, in series [3], the inhibition at 50 µM was found to be 35.3% and the IC50 is > 50 µM. In series [4], the “Enzyme inhibition Tyrosinase” value is recorded as 22.3% and the IC50 was > 50 µM. For the same compound, in series [5], the “Enzyme inhibition Collagenase” value was determined as 21.2% and the IC50 is > 150 µM.

In series [2], `O=c1oc2ccc3ccccc3c2cc1-c1cc(O)cc(O)c1` [Compound 17, 3-(3′,5′-Dihydroxyphenyl)benzo[f]coumarin] came in with an SPF of 4.34 ± 0.66. In series [3], the inhibition at 50 µM was 22.4% and the IC50 is > 50 µM. Also, in series [4], the “Enzyme inhibition Tyrosinase” value came to 10.0% and the IC50 is > 50 µM. Also, in series [5], the “Enzyme inhibition Collagenase” value is given as 15.6% and the IC50 is > 150 µM.
